≈ marks a conversion by molar mass, not a printed value. Like-named read-outs stand apart in the source and are kept apart here.
Experiments:
[1] = system: control Gram-negative E. coli 25922 strain; assay: Antibacterial activity, microbroth dilution MIC, E. coli 25922; type: cell-based, Escherichia coli; conditions: Escherichia coli; E. coli 25922, microbroth dilution; read-out: MIC, 25922
[2] = system: super sensitive Gram-negative Escherichia coli (E. coli) BAS849; assay: Antibacterial activity, microbroth dilution MIC, E. coli BAS849; type: cell-based; conditions: Escherichia coli, read-out: MIC, BAS849
[3] = system: Gram-positive Staphylococcus aureus (S. aureus) 29213; assay: Antibacterial activity, microbroth dilution MIC, S. aureus 29213; type: cell-based; conditions: Staphylococcus aureus; S. aureus 29213, microbroth dilution; read-out: MIC, 29213
[4] = system: Haemophilus influenzae (H. influenzae) 49247; assay: Antibacterial activity, MIC, H. influenzae 49247; type: cell-based; conditions: Haemophilus influenzae; H. influenzae 49247; read-out: MIC 49247
From the text: (§1) The antibacterial activity from a microbroth dilution method may be presented as the minimum inhibitory concentration (MIC in […]). The MIC value is the lowest concentration of a drug which prevents macroscopically visible bacterial growth under test conditions.
Antibacterial activity of test compounds against the Gram-negative bacteria Haemophilus influenzae (H. influenzae) 49247, Moraxella catarrhalis (M. catarrhalis) 25238 and Neisseria meningitidis (N. meningitidis) 13090 is shown in Table 6.

[5] = system: Moraxella catarrhalis (M. catarrhalis) 25238; assay: Antibacterial activity, MIC, M. catarrhalis 25238; type: cell-based; conditions: Moraxella catarrhalis, M. catarrhalis 25238; read-out: MIC 25238
[6] = system: Neisseria meningitidis (N. meningitidis) 13090; assay: Antibacterial activity, MIC, N. meningitidis 13090; type: cell-based; conditions: Neisseria meningitidis; N. meningitidis 13090; read-out: MIC 13090
[7] = system: E. coli ELZ4251 (MDR clinical isolate); assay: Antibacterial activity, MIC, MDR E. coli ELZ4251; type: cell-based, Escherichia coli; conditions: Escherichia coli, E. coli ELZ4251, MDR clinical isolate; read-out: MIC ELZ4251
[8] = system: quinolone resistant E. coli LZ3111; assay: Antibacterial activity, MIC, quinolone resistant E. coli LZ3111; type: cell-based, Escherichia coli; conditions: Escherichia coli, read-out: MIC, LZ3111
From the text: as §1
Mutations in these regions are known to confer a high level resistance to the quinolone class of antibiotics.

[9] = system: E. coli ELZ4000 (MDR clinical isolate); assay: Antibacterial activity, MIC, MDR E. coli ELZ4000; type: cell-based, Escherichia coli; conditions: Escherichia coli; E. coli ELZ4000, MDR clinical isolate; read-out: MIC ELZ4000
[10] = E. coli BAS849, microbroth dilution

| Compound | MIC [1] | MIC [2, 10] | MIC [3] | MIC [4] | MIC [5] | MIC [6] | MIC [7] | MIC [8] | MIC [9] | MIC [2] |
| --- | --- | --- | --- | --- | --- | --- | --- | --- | --- | --- |
| CCc1cc(C(=O)O)c(=O)[nH]c1-c1ccc(-n2ccnc2)cc1 [Cpd 106, 5-ethyl-6-[4-(1H-imidazol-1-yl)phenyl]-2-oxo-1,2-dihydropyridine-3-carboxylic acid] | 12.5 to 150 µg/mL (≈ 40.4 to 485 µM) | 12.5 to 150 µg/mL (≈ 40.4 to 485 µM) | 12.5 to 150 µg/mL (≈ 40.4 to 485 µM) | < 1 µg/mL | 12.5 to 150 µg/mL (≈ 40.4 to 485 µM) | 3.5 to 12.5 µg/mL (≈ 11.3 to 40.4 µM) |  |  |  |  |
| CCc1c(-c2ccc(N3CCCCC3)cc2)[nH]c(=O)c(C(=O)O)c1O [Cpd 109, 5-ethyl-4-hydroxy-2-oxo-6-[4-(piperidin-1-yl)phenyl]-1,2-dihydropyridine-3-carboxylic acid] | 12.5 to 150 µg/mL (≈ 36.5 to 438 µM) | < 1 µg/mL | 3.5 to 12.5 µg/mL (≈ 10.2 to 36.5 µM) | < 1 µg/mL | < 1 µg/mL | < 1 µg/mL |  |  |  |  |
| CCc1cc(C(=O)O)c(=O)[nH]c1-c1ccc(N2CCCC2=O)cc1 [Cpd 114, 5-ethyl-2-oxo-6-[4-(2-oxopyrrolidin-1-yl)phenyl]-1,2-dihydropyridine-3-carboxylic acid] | 12.5 to 150 µg/mL (≈ 38.3 to 460 µM) | 1 to 3.5 µg/mL (≈ 3.06 to 10.7 µM) | 12.5 to 150 µg/mL (≈ 38.3 to 460 µM) | < 1 µg/mL | < 1 µg/mL | < 1 µg/mL |  |  |  |  |
| CCc1cc(C(=O)O)c(=O)[nH]c1-c1ccc(N2CC(O)C2)cc1 [Cpd 121, 5-ethyl-6-[4-(3-hydroxyazetidin-1-yl)phenyl]-2-oxo-1,2-dihydropyridine-3-carboxylic acid] | 3.5 to 12.5 µg/mL (≈ 11.1 to 39.8 µM) | < 1 µg/mL | 12.5 to 150 µg/mL (≈ 39.8 to 477 µM) | < 1 µg/mL | < 1 µg/mL | < 1 µg/mL | 12.5 to 150 µg/mL (≈ 39.8 to 477 µM) | 12.5 to 150 µg/mL (≈ 39.8 to 477 µM) | 12.5 to 150 µg/mL (≈ 39.8 to 477 µM) |  |
| CCc1cc(C(=O)O)c(=O)[nH]c1-c1ccc(N2CC3CC2CN3)cc1.O=C(O)C(F)(F)F (stereo not drawn) [Cpd 138, 6-[4-(2,5-diazabicyclo[2.2.1]hept-2-yl)phenyl]-5-ethyl-2-oxo-1,2-dihydropyridine-3-carboxylic acid trifluoroacetate] | 12.5 to 150 µg/mL |  | 12.5 to 150 µg/mL | 12.5 to 150 µg/mL | < 1 µg/mL | 12.5 to 150 µg/mL |  |  |  | 12.5 to 150 µg/mL |
| CCc1cc(C(=O)O)c(=O)[nH]c1-c1ccc(N2CCC[C@H]2C(F)(F)F)cc1 [Cpd 142, 5-ethyl-2-oxo-6-{4-[(2S)-2-(trifluoromethyl)pyrrolidin-1-yl]phenyl}-1,2-dihydropyridine-3-carboxylic acid] | 12.5 to 150 µg/mL (≈ 32.9 to 394 µM) | 1 to 3.5 µg/mL (≈ 2.63 to 9.2 µM) | 12.5 to 150 µg/mL (≈ 32.9 to 394 µM) | 3.5 to 12.5 µg/mL (≈ 9.2 to 32.9 µM) | 1 to 3.5 µg/mL (≈ 2.63 to 9.2 µM) | < 1 µg/mL |  |  |  |  |
| CCc1cc(C(=O)O)c(=O)[nH]c1-c1ccc(N2CCCC2c2ccccc2)cc1 (stereo not drawn) [Cpd 145, 5-ethyl-2-oxo-6-[4-(2-phenylpyrrolidin-1-yl)phenyl]-1,2-dihydropyridine-3-carboxylic acid] | 12.5 to 150 µg/mL (≈ 32.2 to 386 µM) | < 1 µg/mL | 1 to 3.5 µg/mL (≈ 2.57 to 9.01 µM) | < 1 µg/mL | < 1 µg/mL | < 1 µg/mL |  |  |  |  |
| CCc1cc(C(=O)O)c(=O)[nH]c1-c1ccc(N2CCC[C@H]2COC)cc1 [Cpd 146, 5-ethyl-6-{4-[(2S)-2-(methoxymethyl)pyrrolidin-1-yl]phenyl}-2-oxo-1,2-dihydropyridine-3-carboxylic acid] | 12.5 to 150 µg/mL (≈ 35.1 to 421 µM) | < 1 µg/mL | 12.5 to 150 µg/mL (≈ 35.1 to 421 µM) | 1 to 3.5 µg/mL (≈ 2.81 to 9.82 µM) | < 1 µg/mL | < 1 µg/mL |  |  |  |  |
| CCc1cc(C(=O)O)c(=O)[nH]c1-c1ccc(N2[C@H](COC)CC[C@H]2COC)cc1 [Cpd 148, 6-{4-[(2S,5S)-2,5-bis(methoxymethyl)pyrrolidin-1-yl]phenyl}-5-ethyl-2-oxo-1,2-dihydropyridine-3-carboxylic acid] | 12.5 to 150 µg/mL (≈ 31.2 to 375 µM) | 3.5 to 12.5 µg/mL (≈ 8.74 to 31.2 µM) | 12.5 to 150 µg/mL (≈ 31.2 to 375 µM) | 12.5 to 150 µg/mL (≈ 31.2 to 375 µM) | 12.5 to 150 µg/mL (≈ 31.2 to 375 µM) | 3.5 to 12.5 µg/mL (≈ 8.74 to 31.2 µM) |  |  |  |  |
| CCc1cc(C(=O)O)c(=O)[nH]c1-c1ccc(N2CCCC2c2nccs2)cc1 (stereo not drawn) [Cpd 156, 5-ethyl-2-oxo-6-{4-[2-(1,3-thiazol-2-yl)pyrrolidin-1-yl]phenyl}-1,2-dihydropyridine-3-carboxylic acid] | 12.5 to 150 µg/mL (≈ 31.6 to 379 µM) | < 1 µg/mL | 12.5 to 150 µg/mL (≈ 31.6 to 379 µM) | < 1 µg/mL | < 1 µg/mL | < 1 µg/mL |  |  |  |  |
| CCc1c(-c2ccc(N(C)C)cc2)[nH]c(=O)c(C(=O)O)c1OC [Cpd 298, 6-[4-(dimethylamino)phenyl]-5-ethyl-4-methoxy-2-oxo-1,2-dihydropyridine-3-carboxylic acid] | 12.5 to 150 µg/mL (≈ 39.5 to 474 µM) | 3.5 to 12.5 µg/mL (≈ 11.1 to 39.5 µM) | 12.5 to 150 µg/mL (≈ 39.5 to 474 µM) | 3.5 to 12.5 µg/mL (≈ 11.1 to 39.5 µM) | 12.5 to 150 µg/mL (≈ 39.5 to 474 µM) | 3.5 to 12.5 µg/mL (≈ 11.1 to 39.5 µM) |  |  |  |  |
